Laboratory results taken from patent US20100184596A1, “METHOD FOR THE CONTROL OF WEEDS IN TURF” (SYNGENTA CROP PROTECTION, INC., priority 2007, published 2010).

Key:
Format in all cases: in vivo
[1] = system: clover and dandelion in turfgrass varieties; assay: Example B1, conclusion in words; details: in Kentucky bluegrass, tall fescue and perennial ryegrass at the tested application rates
Experimental: The selectivity of the compound of formula I in turf (removal of grassy and broadleaf weeds) has been tested in turfgrass varieties selected from Kentucky bluegrass, tall fescue and perennial ryegrass and in […] selected from clover (an aggressive perennial weed) and dandelion (a weed of perennial horticultural crops and gardens which may also be a problem in some annual crops, particularly where reduced tillage is practiced).
The trials were conducted in Champaign, Ill., U.S. (Table B1.1) and Hudson, N.Y., U.S. (Table B1.2) under field conditions. Turfgrasses were maintained at approximately a 2.5″ height, like a home lawn. Mixed turf and weed stands were present. The test compounds were applied with a CO2 pressurized backpack sprayer by spraying in the form of an aqueous suspension (prepared from a wettable powder) in a concentration of 210 to 280 g/ha. The plots were then mowed and irrigated as needed. After 22 and 28 days respectively, the test is visually evaluated (100%=total damage to plant; 0%=no damage to plant).

[2] = system: Bermudagrass v. Tifway 419; assay: Phytotoxicity via granule application (Table B3.2)
Experimental: The phytotoxicity of the compound of formula I to turfgrass species was tested. The compound was applied by distribution of granule formulations of formula I, post emergence, to turfgrass species at two rates. All treatments were watered-in 1 day after application. Percentage phytotoxicity assessments were taken at various timepoints.
Two granule formulations were made and tested. Granule A is an inert granule formulation, comprising 99.06 wt % DG Lite 150 granules, 0.14 wt % compound of formula I, 0.50 wt % Sunspray 6N, and 0.30 wt % HiSil 233. The compound of formula I was added to the DG Lite granules while blending in a Continental Rollo-mixer.
Sunspray 6N oil was then sprayed onto the granules, and HiSil added to dry excess liquid and improve granule flowability. The granules were blended in the mixer for 20-30 minutes until homogeneous, and passed through a −12/+60 mesh to remove over and under sized particles.
Granule B is a fertiliser granule formulation, comprising 54.65 wt % urea, 6.63 wt % triple super phosphate, 4.95 wt % potassion chloride, 9.91 wt % huber clay, 7.22 wt % HiSil 233, 0.16 wt % compound of formula I, […] agnique ME 181, 2.07 wt % stepfac 8180, and 11.98 wt % water. […] The remaining HiSil was added and granules dried at 40-60° C., to remove excess liquid. Finally, the granules were passed through a −12/+60 mesh to remove over and under sized particles.

turfgrass = assay: Example B4, conclusion in words; details: in combination with a safener
Experimental: (§1) The phytotoxicity to turfgrass of the compound of formula I in combination with various safeners was tested. The combinations were applied by post emergence spray application. Percentage phytotoxicity assessments were taken at various timepoints. The safeners tested in these trials were cloquintocet-mexyl, cyprosulfamide, a compound of formula 2.3, and isoxadifen-ethyl.

[3] = system: St. Augustinegrass v. Delmar; assay: Phytotoxicity via post emergence spray application (Table B2.8); details: 1 appl
Experimental: (§2) The phytotoxicity of the compound of formula I to turfgrass species was tested. The compound was applied via post emergence spray to a range of warm and cool season turfgrass species at various rates and spray treatment treatment regimes. Percentage phytotoxicity assessments were taken at various timepoints.

Tall fescue v. Coronado = assay: Phytotoxicity of granule formulations with safeners (Table B4.4); details: 8 DAT
Experimental: as §1
Tables B4.4 and B4.5 present the results of trials using safeners applied in combination with granule formulations of the compound of formula I.

Bermudagrass = assay: Phytotoxicity via post emergence spray application (Table B2.5)
Experimental: as §2

[4] = system: Hydrocotyle sp. (dollarweed); assay: Weed control in combination with safeners, post emergence spray, in St. Augustinegrass v. Delmar (Table B7.1); details: no safener, 100 g ai/ha
Experimental: The weed control efficacy of the compound of formula I in combination with various safeners was tested. The combinations were applied by post emergence spray application. Percentage weed control assessments were taken at various timepoints.

In the case of `COCCOCc1nc(C(F)(F)F)ccc1C(=O)C1=C(O)C2CCC(C2)C1=O` (stereo not drawn) [Formula I, 4-Hydroxy-3-[2-(2-methoxyethoxymethyl)-6-trifluoromethylpyridine-3-carbonyl]-bicyclo[3.2.1]oct-3-en-2-one], the “selective weed control in turfgrass, in words” value [1] is reported as “suitable to combat undesired broadleaf weeds like clover and dandelion in turfgrass varieties”, the “% phytotoxicity” value ([2]; Granule A (inert), 112 g ai/ha, 7 DAT) is reported as 6.00% and the “% phytotoxicity” value ([2]; Granule A (inert), 112 g ai/ha, 11 DAT) is reported as 0.00%. The “% phytotoxicity” value ([2]; Granule A (inert), 280 g ai/ha, 7 DAT) was 23.30%, the “% phytotoxicity” value ([2]; Granule A (inert), 280 g ai/ha, 11 DAT) was 8.30% and the “% phytotoxicity” value ([2]; Granule A (inert), 280 g ai/ha, 15 DAT) was 2.30%. The “% phytotoxicity” value ([2]; Granule A (inert), 280 g ai/ha, 20 DAT) was 0.00%, the “% phytotoxicity” value ([2]; Granule B (fertiliser), 112 g ai/ha, 7 DAT) was 16.70% and the “% phytotoxicity” value ([2]; Granule B (fertiliser), 280 g ai/ha, 7 DAT) was 33.30%. For the same compound, the “phytotoxicity in combination with a safener, in words” value (turfgrass) was “reduces the level of phytotoxicity to turfgrass”, the “% phytotoxicity” value ([3]; 10 g ai/ha, 5 DAT) was 5.00% and the “% phytotoxicity” value ([3]; 10 g ai/ha, 12 DAT) was 5.00%. The “% phytotoxicity” value ([3]; 10 g ai/ha, 18 DAT) was 0.00%, the “% phytotoxicity” value ([3]; 10 g ai/ha, 28 DAT) was 0.00% and the “% phytotoxicity” value ([3]; 20 g ai/ha, 5 DAT) was 6.67%. The “% phytotoxicity” value ([3]; 20 g ai/ha, 12 DAT) was 6.67%, the “% phytotoxicity” value ([3]; 20 g ai/ha, 18 DAT) was 2.00% and the “% phytotoxicity” value ([3]; 20 g ai/ha, 28 DAT) was 0.00%. The “% phytotoxicity” value ([3]; 40 g ai/ha, 5 DAT) was 11.67%, the “% phytotoxicity” value ([3]; 40 g ai/ha, 12 DAT) was 18.33% and the “% phytotoxicity” value ([3]; 40 g ai/ha, 18 DAT) was 4.00%. For the same compound, the “% phytotoxicity” value ([3]; 40 g ai/ha, 28 DAT) was 0.00%, the “% phytotoxicity” value ([3]; 80 g ai/ha, 5 DAT) was 16.67% and the “% phytotoxicity” value ([3]; 80 g ai/ha, 12 DAT) was 30.00%. The “% phytotoxicity” value ([3]; 80 g ai/ha, 18 DAT) was 5.00%, the “% phytotoxicity” value ([3]; 80 g ai/ha, 28 DAT) was 0.67% and the “% phytotoxicity” value ([3]; 160 g ai/ha, 5 DAT) was 23.33%. For the same compound, the “% phytotoxicity” value ([3]; 160 g ai/ha, 12 DAT) was 46.67%, the “% phytotoxicity” value ([3]; 160 g ai/ha, 18 DAT) was 8.33% and the “% phytotoxicity” value ([3]; 160 g ai/ha, 28 DAT) was 3.00%. For the same compound, the “% phytotoxicity” value (Tall fescue v. Coronado; DG Lite granule, no safener, 680 g ai/ha) was 20.0%, the “% phytotoxicity” value (Tall fescue v. Coronado; DG Lite granule, safener Cyprosulfamide (0.07%), 680 g ai/ha) was 22.5% and the “% phytotoxicity” value (Tall fescue v. Coronado; DG Lite granule, safener Formula 2.3 (0.07%), 680 g ai/ha) was 16.3%. The “% phytotoxicity” value (Tall fescue v. Coronado; DG Lite granule, safener Isoxadifen (0.07%), 680 g ai/ha) was 21.3%, the “% phytotoxicity” value (Tall fescue v. Coronado; Spray, no safener, 340 g ai/ha) was 18.8% and the “% phytotoxicity” value (Bermudagrass; 1 appl, 140 g ai/ha, 7 DAT) was 38.75%. The “% phytotoxicity” value (Bermudagrass; 1 appl, 140 g ai/ha, 14 DAT) was 18.75%, the “% phytotoxicity” value (Bermudagrass; 1 appl, 140 g ai/ha, 21 DAT) was 15.00% and the “% phytotoxicity” value (Bermudagrass; 1 appl, 140 g ai/ha, 32 DAT) was 13.75%. The “% phytotoxicity” value (Bermudagrass; 1 appl, 140 g ai/ha, 35 DAT) was 13.75%, the “% phytotoxicity” value (Bermudagrass; 1 appl, 140 g ai/ha, 42 DAT) was 7.50% and the “% phytotoxicity” value (Bermudagrass; 1 appl, 140 g ai/ha, 49 DAT) was 6.25%. The “% phytotoxicity” value (Bermudagrass; 1 appl, 280 g ai/ha, 7 DAT) was 38.75%, the “% phytotoxicity” value (Bermudagrass; 1 appl, 280 g ai/ha, 14 DAT) was 28.75% and the “% phytotoxicity” value (Bermudagrass; 1 appl, 280 g ai/ha, 21 DAT) was 12.50%. The “% phytotoxicity” value (Bermudagrass; 1 appl, 280 g ai/ha, 32 DAT) was 15.00%, the “% phytotoxicity” value (Bermudagrass; 1 appl, 280 g ai/ha, 35 DAT) was 15.00% and the “% phytotoxicity” value (Bermudagrass; 1 appl, 280 g ai/ha, 42 DAT) was 8.75%. For the same compound, the “% phytotoxicity” value (Bermudagrass; 1 appl, 280 g ai/ha, 49 DAT) was 6.25%, the “% phytotoxicity” value (Bermudagrass; 2 appl, 140 g ai/ha, 7 DAT) was 30.00% and the “% phytotoxicity” value (Bermudagrass; 2 appl, 140 g ai/ha, 14 DAT) was 26.25%. The “% phytotoxicity” value (Bermudagrass; 2 appl, 140 g ai/ha, 21 DAT) was 15.00%, the “% phytotoxicity” value (Bermudagrass; 2 appl, 140 g ai/ha, 32 DAT) was 68.75% and the “% phytotoxicity” value (Bermudagrass; 2 appl, 140 g ai/ha, 35 DAT) was 35.00%. The “% phytotoxicity” value (Bermudagrass; 2 appl, 140 g ai/ha, 42 DAT) was 15.00%, the “% phytotoxicity” value (Bermudagrass; 2 appl, 140 g ai/ha, 49 DAT) was 28.75% and the “% phytotoxicity” value (Bermudagrass; 2 appl, 280 g ai/ha, 7 DAT) was 42.50%. The “% phytotoxicity” value (Bermudagrass; 2 appl, 280 g ai/ha, 14 DAT) was 36.25%, the “% phytotoxicity” value (Bermudagrass; 2 appl, 280 g ai/ha, 21 DAT) was 18.75% and the “% phytotoxicity” value (Bermudagrass; 2 appl, 280 g ai/ha, 32 DAT) was 75.00%. The “% phytotoxicity” value (Bermudagrass; 2 appl, 280 g ai/ha, 35 DAT) was 65.00%, the “% phytotoxicity” value (Bermudagrass; 2 appl, 280 g ai/ha, 42 DAT) was 26.25% and the “% phytotoxicity” value (Bermudagrass; 2 appl, 280 g ai/ha, 49 DAT) was 30.00%. For the same compound, the “% control” value ([4]; 7 DAT) was 41.70%, the “% control” value ([4]; 11 DAT) was 61.70% and the “% control” value ([4]; 18 DAT) was 61.70%.
